Experimental data from patent publication US9597369B2, “Inhibitors of atypical protein kinase C and their use in treating hedgehog pathway-dependent cancers” (The Board of Trustees of the Leland Stanford Junior …, priority 2011, dated 2017).
Peptide text beside a SMILES is read from it. * marks the point of attachment. Myristoyl = CCCCCCCCCCCCCC(=O)*

Tests used:
non-tumorigenic cells = test: Proliferation of non-tumorigenic cells; format: cell-based, mouse and human; settings: mouse dermal fibroblasts, mouse keratinocytes, human retinal pigment epithelial cells, FIG. 7
Experimental: (§1) Primary mouse dermal cells were isolated as previously described (Bershteyn, M., Atwood, S. X., Woo, W.-M., Li, M. & Oro, A. E. MIM and cortactin antagonism regulates ciliogenesis and hedgehog signaling. Dev. Cell 19, 270-283 (2010)). Dermal cells were grown in Amniomax media containing supplement and antibiotics (Invitrogen). ASZ001 cells were grown in 154CF media containing 2% chelated FBS, HKGS supplement, and antibiotics (Invitrogen). Keratinocytes (HPA Culture Collections) were grown in CnT-07 media containing supplement and 0.07 mM CaCl2 (CelINTec). Cells were sterum-starved between 24-48 hrs to induce ciliogenesis. MTT cell proliferation assay was performed using manufacturer's protocol from Invitrogen.

allografted BCC tumors = settings: mouse, in vivo
From the text: All mouse studies were approved by and conformed to the policies and regulations of the Institutional Animal Care and Use Committees at Stanford University and the Children's Hospital Oakland Research Institute. Ptch1+/−, K14CreER2, p53flox/flox mice were used to develop BCC tumors. Tumors were allografted as previously described (Wang, G. Y. et al. Establishment of Murine Basal Cell Carcinoma Allografts: A Potential Model for Preclinical Drug Testing and for Molecular Analysis. Journal of Investigative Dermatology (2011).doi:10.1038/jid.2011.204). Nine tumors from three mice were treated topically twice daily with 0.8 mg/kg PSI dissolved in DMSO for at least 32 days. Ten tumors from three mice were treated with DMSO twice daily as a control. Mice were euthanized and tumors harvested depending on tumor size that exceeded our animal care guidelines. We measured the change in tumor size with calipers every three to four days. Pairwise comparisons between DMSO and PSI treatment were done using a two-sided unpaired t test with GraphPad Prism software.

ASZ001 cells [1] = format: cell-based, mouse; settings: 48 h
Experimental: as §1
(§2) Subconfluent ASZ001 cells were serum-starved and inhibitors added for 48 hrs prior to MTT assay and 24 hrs prior to visualize cilia and assay Gli target gene induction. Stability assays performed with ASZ001 preincubated with PSI for one hour before 20 ug/ml cyclohexamide addition at various time points.

Hh signaling = Hh signaling (gli1 mRNA, Gli target gene induction) in BCC cells; format: cell-based, mouse
Experimental: as §2
(§3) Aligned 36 bp raw reads with Bowtie using the NCBI37/mm9 reference genome. Differential expression analysis was performed on the 3′ exon with the Cufflinks suite using mouse RefSeq gene predictions as a reference transcriptome. Annotated coding transcripts were filtered for significant expression by a RPKM of 25 in at least one sample set. […] Transcripts were validated using Brilliant II SYBR Green qRT-PCR Master Mix Kit (Agilent Technologies) with primers listed in the following table. Two-tail p-value between our gene sets and other gene sets calculated using Fisher's Exact Test.

ASZ001 cells [2] = test: 3' end RNA sequencing of inhibitor-treated BCC cells; format: cell-based, mouse; settings: inhibitor 24 hrs, FIG. 3a
Experimental: as §3

Q: Which “proliferation in non-tumorigenic cells” value (non-tumorigenic cells) does the source give for `CCCCCCCCCCCCCC(=O)N[C@@H](CO)C(=O)N[C@H](C(=O)N[C@@H](Cc1ccc(O)cc1)C(=O)N[C@@H](CCCNC(=N)N)C(=O)N[C@@H](CCCNC(=N)N)C(=O)NCC(=O)N[C@@H](C)C(=O)N[C@@H](CCCNC(=N)N)C(=O)N[C@@H](CCCNC(=N)N)C(=O)N[C@@H](Cc1c[nH]c2ccccc12)C(=O)N[C@@H](CCCNC(=N)N)C(=O)N[C@@H](CCCCN)C(=O)N[C@@H](CC(C)C)C(=O)N[C@@H](Cc1ccc(O)cc1)C(=O)O)[C@@H](C)CC` [PSI] (Myristoyl-SIYRRGARRWRKLY-OH) here?
A: Its value is “unaffected”.

Q: And the “adverse effects on normal skin” value (allografted BCC tumors)?
A: Its value is “no adverse effects to PSI treatment except a mild hair phenotype”.

Q: And the IC50 (ASZ001 cells [1])?
A: The IC50 was 5 µM.

Q: With `CNC1CCC(N(Cc2cccc(-c3ccncc3)c2)C(=O)c2sc3ccccc3c2Cl)CC1` (centres unmarked) [SAG] as the molecule, how does the gli1 transcription (Hh signaling; BCC cells, agonist alone, FIG. 3d) read?
A: The gli1 transcription was “activates gli1 transcription”.

Q: For `Cc1nn(-c2ccccc2)c(C)c1/C=N/N1CCN(Cc2ccccc2)CC1` [Sant-1], which “transcripts changed two-fold or greater compared to control” value (ASZ001 cells [2]) is on record?
A: The value was 5700 transcripts.

Q: And the cdc42 transcript (Hh signaling; mouse BCC cells, FIG. 2i)?
A: The cdc42 transcript was “repressed”.

Q: And the pard6a transcript (Hh signaling; mouse BCC cells, FIG. 2i)?
A: The pard6a transcript was “elevated”.

Q: Which “gli1 and apkciota transcript” value (Hh signaling; BCC cells, FIG. 2g) does the source give for `CC1=C2C[C@H]3[C@@H](CC=C4C[C@@H](O)CC[C@@]43C)[C@@H]2CC[C@]12O[C@@H]1C[C@H](C)CN[C@H]1[C@H]2C` [cyclopamine] here?
A: The value was “specifically suppressed”.
